Literature values, collected in US20040192587A9, “Zinc formulations as a prophylactic treatment for the common cold” (priority 2002, published 2004).

Assays:
rhinovirus common colds = details: large prophylactic oral doses, as much as 2 grams per day
common cold = details: tablet with about 23 mg elemental zinc dissolved in the mouth every two hours during 12 to 16 waking hours; sixty-five humans; untreated group 10.8 days

Compound	frequency of acquisition of rhinovirus common colds or amount of virus shedding (rhinovirus common colds)	duration of colds (common cold) [days]
O=C1O[C@H]([C@@H](O)CO)C(O)=C1O [vitamin C]	have not altered	–
zinc gluconate	–	3.9
